# Assays:
# HDAC-7 = target: T1, HDAC-7 (Homo sapiens, UniProt Q8WUI4); assay: Enzyme inhibitory activity, HD7; type: biochemical; settings: read-out: IC50 HD 7
# T1 sequence (Q8WUI4 1-952): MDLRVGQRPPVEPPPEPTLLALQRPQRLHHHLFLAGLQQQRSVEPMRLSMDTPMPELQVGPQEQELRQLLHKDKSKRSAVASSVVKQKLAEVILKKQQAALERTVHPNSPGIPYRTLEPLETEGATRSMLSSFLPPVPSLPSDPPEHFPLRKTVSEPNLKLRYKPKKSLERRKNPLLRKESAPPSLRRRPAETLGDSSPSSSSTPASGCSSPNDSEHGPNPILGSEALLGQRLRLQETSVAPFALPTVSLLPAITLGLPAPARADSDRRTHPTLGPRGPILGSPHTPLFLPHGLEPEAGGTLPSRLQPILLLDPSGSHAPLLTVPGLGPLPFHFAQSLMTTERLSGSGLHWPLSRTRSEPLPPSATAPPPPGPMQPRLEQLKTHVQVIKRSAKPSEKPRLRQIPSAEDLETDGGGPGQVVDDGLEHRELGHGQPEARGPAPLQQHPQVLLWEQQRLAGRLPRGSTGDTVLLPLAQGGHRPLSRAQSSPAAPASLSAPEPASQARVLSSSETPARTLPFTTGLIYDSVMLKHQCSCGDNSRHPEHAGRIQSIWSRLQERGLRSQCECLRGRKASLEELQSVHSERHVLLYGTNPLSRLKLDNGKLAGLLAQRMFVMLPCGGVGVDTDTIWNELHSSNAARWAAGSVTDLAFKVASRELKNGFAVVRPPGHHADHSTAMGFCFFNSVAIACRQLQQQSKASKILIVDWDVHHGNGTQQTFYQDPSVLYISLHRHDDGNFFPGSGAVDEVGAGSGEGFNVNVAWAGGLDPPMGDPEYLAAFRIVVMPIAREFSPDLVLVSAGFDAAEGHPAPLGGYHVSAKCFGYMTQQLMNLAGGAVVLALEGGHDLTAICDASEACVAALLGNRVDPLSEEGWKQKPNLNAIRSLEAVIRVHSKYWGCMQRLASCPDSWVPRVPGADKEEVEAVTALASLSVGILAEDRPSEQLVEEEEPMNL
# HDAC-8 = target: T2, HDAC-8 (Homo sapiens, UniProt Q9BY41); assay: Enzyme inhibitory activity, HD8; type: biochemical; settings: read-out: IC50 HD 8
# T2 sequence (Q9BY41 1-377): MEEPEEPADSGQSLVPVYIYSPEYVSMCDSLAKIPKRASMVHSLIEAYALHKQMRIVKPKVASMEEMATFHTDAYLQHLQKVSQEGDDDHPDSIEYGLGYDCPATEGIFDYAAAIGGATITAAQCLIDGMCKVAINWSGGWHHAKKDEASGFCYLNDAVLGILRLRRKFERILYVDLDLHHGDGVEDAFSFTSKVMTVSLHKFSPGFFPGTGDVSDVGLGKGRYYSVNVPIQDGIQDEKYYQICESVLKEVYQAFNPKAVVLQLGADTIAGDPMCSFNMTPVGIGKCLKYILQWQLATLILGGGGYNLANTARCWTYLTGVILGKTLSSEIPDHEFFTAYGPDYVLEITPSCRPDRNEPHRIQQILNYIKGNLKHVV
# lung cancer cells A549 = assay: MTT assay, A549; type: cell-based; settings: Homo sapiens, 72 hours, read-out: IC50 A 549 (MTT)
# Procedure: (§1) Effects of HDAC isotype-specific small molecule inhibitors on growth inhibition of various human cancer cells (from ATCC) in vitro were determined by MTT assays. Briefly, cells seeded in 96-well plates were incubated for 72 hours at 37° C. in a 5% CO2 incubator. MTT (Sigma) was added at a final concentration of 0.5 mg/ml and incubated with the cells for 4 hours before an equal volume of solubilization buffer (50% N,N-dimethylformamide, 20% SDS, pH 4.7) was added onto cultured cells. After overnight incubation, solubilized dye was quantified by colorimetric reading at […] using a reference at 630 nM. OD values were converted to cell numbers according to a standard growth curve of the relevant cell line. The concentration which reduces cell numbers to 50% of those of DMSO-treated cells is determined as MTT IC50. In Table 4, IC50s of several HDAC7 or HDAC8 inhibitors in MTT assays in various human cancer cell lines were listed. They include colon cancer cells HCT116 and SW48, lung cancer cells A549 and H446, breast cancer cells MCF-7 and MDAmb231, a prostate cancer cell line Du145 and a bladder cancer cell line T24.
# [1] = system: breast cancer cells MDAmb231; assay: MTT assay, MDAmb231; type: cell-based; settings: Homo sapiens, MDA-MB-231; 72 hours
# Procedure: as §1
# lung cancer cells H446 = assay: MTT assay, H446; type: cell-based; settings: Homo sapiens, NCI-H446; 72 hours; read-out: MTT IC50 H 446
# Procedure: as §1
# [2] = system: bladder cancer cell line T24; assay: MTT assay, T24; type: cell-based; settings: Homo sapiens; 72 hours; read-out: MTT IC50 T 24
# Procedure: as §1
# [3] = system: colon carcinoma cells HCT116 tumors; assay: Tumor growth in a mouse model, HCT116; type: in vivo; settings: intraperitoneal, BALB/c nude mice, vs vehicle-treated
# Procedure: Female BALB/c nude mice are obtained from Charles River Laboratories (Charles River, N.Y.) and used at age 8-10 weeks. Human tumor cells (2×10^6, colon carcinoma cells HCT116 or SW48, lung carcinoma cells A549, pancreatic carcinoma Panc-1, ovarian carcinoma cells ES2, or prostate carcinoma cells Du145) are injected subcutaneously in the animal's flank and allowed to form solid tumors. Tumor fragments are serially passaged a minimum of three times, then approximately 30 mg tumor fragments are implanted subcutaneously through a small surgical incision under general anaesthesia. Small molecule inhibitor administration by intraperotineal or oral administration was initiated when the tumors reached a volume of 100 mm^3. For intraperotineal administration, small molecule inhibitors of HDAC-7, HDAC-8 or both, or in combination with small molecule inhibitors of HDAC-1 (20-60 mg/kg body weight/day) are dissolved in 100% DMSO and administered daily by injection. For oral administration, small molecule inhibitors of HDAC (60 mg/kg body weight) are dissolved in saline acidified with 0.2 N HCl. Tumor volumes are monitored twice weekly up to 20 days. Each experimental group contains at least 6-8 animals. Percentage inhibition is calculated using volume of tumor from vehicle-treated mice as controls. Shown in Table 4, inhibition of HDAC7 or HDAC8 in combination with HDAC1 leads to inhibition of growth of various human tumors in vivo.
# HDAC-1 = HDAC-1 (Homo sapiens, UniProt Q13547); assay: Enzyme inhibitory activity, HD1; type: biochemical; settings: read-out: IC50 HD 1
# Chain of HDAC-1 (Q13547 whole entry): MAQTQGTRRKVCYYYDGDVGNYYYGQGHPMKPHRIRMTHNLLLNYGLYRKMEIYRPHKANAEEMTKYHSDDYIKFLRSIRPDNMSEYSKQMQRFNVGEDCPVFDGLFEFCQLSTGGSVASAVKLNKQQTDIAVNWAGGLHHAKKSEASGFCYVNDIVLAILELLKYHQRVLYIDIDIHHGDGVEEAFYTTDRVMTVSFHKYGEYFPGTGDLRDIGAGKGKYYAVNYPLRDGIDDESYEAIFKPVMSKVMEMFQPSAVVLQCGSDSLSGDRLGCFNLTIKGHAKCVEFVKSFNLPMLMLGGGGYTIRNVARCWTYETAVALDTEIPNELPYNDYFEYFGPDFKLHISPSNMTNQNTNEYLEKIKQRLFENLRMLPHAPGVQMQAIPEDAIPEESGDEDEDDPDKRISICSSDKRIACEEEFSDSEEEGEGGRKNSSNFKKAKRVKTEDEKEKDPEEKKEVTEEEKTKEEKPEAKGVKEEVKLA
# HDAC-4 = HDAC-4 (Homo sapiens, UniProt P56524); assay: Enzyme inhibitory activity, HD4; type: biochemical
# Chain of HDAC-4 (P56524 whole entry): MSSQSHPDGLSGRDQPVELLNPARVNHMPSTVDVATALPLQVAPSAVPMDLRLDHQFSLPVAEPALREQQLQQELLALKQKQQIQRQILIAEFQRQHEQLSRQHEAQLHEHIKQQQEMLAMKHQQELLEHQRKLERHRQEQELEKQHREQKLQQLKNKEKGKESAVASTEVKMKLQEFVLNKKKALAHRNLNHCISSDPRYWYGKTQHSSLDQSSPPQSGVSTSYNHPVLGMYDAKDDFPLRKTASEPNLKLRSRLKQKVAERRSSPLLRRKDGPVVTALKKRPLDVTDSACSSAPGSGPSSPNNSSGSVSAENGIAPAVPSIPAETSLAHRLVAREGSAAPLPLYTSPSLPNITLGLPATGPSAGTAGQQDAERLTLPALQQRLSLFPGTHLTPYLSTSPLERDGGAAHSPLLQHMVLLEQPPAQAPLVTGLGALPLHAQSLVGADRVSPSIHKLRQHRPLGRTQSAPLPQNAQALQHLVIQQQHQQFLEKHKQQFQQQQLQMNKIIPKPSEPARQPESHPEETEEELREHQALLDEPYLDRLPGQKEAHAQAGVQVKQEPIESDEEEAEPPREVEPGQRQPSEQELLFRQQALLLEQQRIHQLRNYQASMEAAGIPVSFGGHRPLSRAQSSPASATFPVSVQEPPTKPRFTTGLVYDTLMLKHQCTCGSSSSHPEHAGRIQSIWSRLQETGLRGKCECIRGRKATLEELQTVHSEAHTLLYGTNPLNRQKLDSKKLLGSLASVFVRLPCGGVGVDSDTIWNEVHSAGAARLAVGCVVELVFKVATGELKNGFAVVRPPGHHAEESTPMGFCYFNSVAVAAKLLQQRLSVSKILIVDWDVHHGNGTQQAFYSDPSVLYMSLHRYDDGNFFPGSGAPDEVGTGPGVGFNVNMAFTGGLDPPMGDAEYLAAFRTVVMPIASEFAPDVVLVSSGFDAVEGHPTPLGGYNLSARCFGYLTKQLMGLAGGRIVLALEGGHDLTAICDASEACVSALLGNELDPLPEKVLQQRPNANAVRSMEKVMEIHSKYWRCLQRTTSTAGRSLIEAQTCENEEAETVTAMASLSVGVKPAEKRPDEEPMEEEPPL
# [4] = (20,I): 20 mg/kg body weight/day
IC50 (HDAC-7),IC50 (HDAC-8),IC50 (lung cancer cells A549),IC50 [1],IC50 (lung cancer cells H446),IC50 [2],IC50 (HDAC-1),IC50 (HDAC-4),SMILES,"% of Inhibition of Tumor Growth in Vivo HCT116 [3, 4]","% of Inhibition of Tumor Growth in Vivo HCT116 ([3]; (40,I): 40 mg/kg body weight/day)"
20000 nM,> 50000 nM,8000 nM,2000 nM,1000 nM,8000 nM,–,–,"Cc1ccc(S(=O)(=O)Nc2ccc(/C=C/C(=O)Nc3ccccc3N)cc2)cc1 [Compound 5, N-(2-Aminophenyl)-3-[4-(4-methylbenzenesulfonylamino)-phenyl]-acrylamide]","48(20,I) %","55(40,I) %"
45000 nM,> 50000 nM,3000 nM,2000 nM,900 nM,2000 nM,2000 nM,> 50000 nM,"COc1ccc(NCc2ccc(C(=O)Nc3ccccc3N)cc2)cc1OC [Compound 17, N-(2-Aminophenyl)-4-[(3,4-dimethoxyphenylamino)-methyl]-benzamide]","77(20,I) %",–
37000 nM,> 50000 nM,300 nM,500 nM,300 nM,–,4000 nM,> 50000 nM,"COc1ccc(-c2ccnc(NCc3ccc(C(=O)Nc4ccccc4N)cc3)n2)cc1OC [Compound 21, N-(2-Amino-phenyl)-4-{[4-(3,4-dimethoxy-phenyl)-pyrimidin-2-ylamino]-methyl}-benzamide]",–,–

SMILES,IC50 (HDAC-7),IC50 (HDAC-8),IC50 (lung cancer cells A549),IC50 [1],IC50 (lung cancer cells H446),IC50 [2],IC50 (HDAC-1),IC50 (HDAC-4),"% of Inhibition of Tumor Growth in Vivo HCT116 [3, 4]","% of Inhibition of Tumor Growth in Vivo HCT116 ([3]; (40,I): 40 mg/kg body weight/day)"
"Nc1ccccc1NC(=O)c1ccc(CSc2nc3ccccc3[nH]2)cc1 [Compound 16, N-(2-Amino-phenyl)-4-(1H-benzimidazol-2-ylsulfanylmethyl)-benzamide]",38000 nM,–,2000 nM,1000 nM,1000 nM,1000 nM,300 nM,29000 nM,"61(20,I) %",–

# — patent US20040072770A1, “Methods for specifically inhibiting histone deacetylase-7 and 8” (priority 2002, published 2004)
